Results: publication PMC3125149, “SCYX-7158, an Orally-Active Benzoxaborole for the Treatment of Stage 2 Human African Trypanosomiasis” (PLoS Neglected Tropical Diseases, 2011)
Converted amounts (≈) assume the structure as drawn.

Assays:
[1] = system: T. b. gambiense 108R; assay: In vitro compound sensitivity assay (resazurin viability); format: cell-based; settings: Trypanosoma brucei, 72 h incubation, n = 1
Description: (§1) The bloodstream-form T. b. brucei 427 strain was obtained from Dr. K. Stuart (Seattle Biomedical Research Institute, Seattle, WA) and was used for routine assessment of compound sensitivity in vitro. Additional strains used in vitro include T. b. rhodesiense STIB900, isolated in 1992 from a patient in Tanzania, and T. b. gambiense 108R, isolated from a patient in Democratic Republic of Congo in 2005. T. b. brucei EATRO 110 was a generous gift from the late William Trager of the Rockefeller University. T. b. brucei TREU 667 strains were kindly provided by F. W. Jennings at the University of Glasgow. Both T. b. brucei EATRO 110 and TREU 667 were cultured according to previously described conditions and used for in vivo studies.[18], [19]
(§2) T. b. brucei was cultured in complete HMI-9 medium,[20] which contains 10% fetal bovine serum (FBS) (Invitrogen, Carlsbad, CA), 10% Serum Plus medium (SAFC Biosciences, Lenexa, KS), and 100 units/mL penicillin and 0.1 mg/mL streptomycin. The trypanosomes were propagated in T-25 vented cap flasks (Corning Inc., Lowell, MA) at 37°C and 5% CO2 with humidity. To ensure log growth phase, trypanosomes were sub-cultured at appropriate dilutions (typically 1∶100) every 2–3 days in fresh HMI-9 medium. T. b. rhodesiense parasites were grown in MEM medium with Earle's salts supplemented with 15% horse serum. For T. b. gambiense, the MEM medium was supplemented with 5% heat-inactivated fetal calf serum (FCS) and 15% human serum.[21] L929 mouse fibroblast cells (ATCC CCL1, American Type Culture Collection, Rockville, MD) were used to determine parasite versus mammalian cell selectivity. Cells were cultured in Dulbecco's Modified Eagle Medium (DMEM), supplemented with 10% FBS, L-glutamine and 100 units/mL penicillin and 0.1 mg/mL streptomycin. MDCKII-hMDR1 cells were generously provided by P. Borst at the Netherlands Kancer Institute. Cells were cultured in DMEM with Glutamax, 10% (v/v) FBS, and 100 units/mL penicillin and 0.1 mg/mL streptomycin. Cell monolayers were fed with cell culture media 24 h after seeding and used for permeability studies 3 days later.
(§3) Compounds to be tested were serially diluted in DMSO and added to 96-well plates to give final concentrations ranging from 5 to 0.01 µg/mL. T. b. brucei parasites in the log phase of growth were diluted in HMI-9 media and added to each well for a final concentration of 1×10^4 parasites per well. For the sensitivity assays using T. b. rhodesiense and T. b. gambiense, pararasites were cultured in MEM supplemented with Baltz components (8), diluted in the aforementioned culture media, and added to each well at a density of 1×10^3 cells/well. The final concentration of DMSO was 0.5% and the total volume was 100 µL/well. After a 72 h incubation, resazurin (Sigma-Aldrich, St. Louis, MO) was added to each well [20 µL of 25 mg/100 mL stock in phosphate buffered saline (PBS)] and incubated for an additional 4–6 h.[22] To assess cell viability, fluorescence was quantified using an EnVision Multilabel Plate Reader (Perkin Elmer, Waltham, MA) at an excitation wavelength of 530 nm and emission of 590 nm. Triplicate data points were averaged to generate sigmoidal dose-response curves and determine IC50 values using XLfit curve fitting software from IDBS (Guilford, UK). The IC50 is defined as the amount of compound required to decrease parasite or cell viability by 50% compared to those grown in the absence of the test compound. […]

[2] = system: T. b. rhodesiense STIB 900; assay: as above; format: cell-based; settings: Trypanosoma brucei; 72 h incubation; n = 1
Description: as §1, §2, §3

[3] = system: T. b. brucei 427; assay: as above; format: cell-based; settings: Trypanosoma brucei
Description: as §1, §2, §3

[4] = In vivo pharmacokinetic characterization (abstract summary); set-up: species or system rodents
Protocol: The blood distribution, CNS disposition and pharmacokinetics of SCYX-7158 were evaluated in infected or non-infected rodents following intravenous or oral administration of compounds. Pharmacokinetics and bioavailability of SCYX-7158 were also evaluated in non-infected beagle dogs and cynomolgus monkeys. In-life phases of non-infected rodent studies were performed at Vivisource (Waltham, MA); studies in non-naïve cynomolgus monkeys were performed by SNBL USA (Everett, WA).
Male CD-1 mice (∼25 g), male Sprague-Dawley rats (∼225 g), or male cynomolgus monkeys (∼3–5 kg) were administered test article by either bolus intravenous injection (IV) or oral gavage. Animals in the IV groups received a single 2 mg/kg IV dose. Animals received oral doses of test articles as either single or twice daily doses ranging from 8 mg/kg to 50 mg/kg. All doses were administered as clear colorless solutions in either 50% (v/v) PEG 400: 20% (v/v) ethanol: 30% (v/v) carboxymethylcellulose (0.5% w/v in sterile water for injection) or 2% (v/v) ethanol: 5% (w/v) dextrose in sterile water for injection. Doses were administered in a volume of 4 mL/kg, 2 mL/kg or 1 mL/kg for mice, rats and cynomolgus monkeys, respectively. For pharmacokinetic analysis, blood samples were collected from mice via cardiac puncture under terminal anaesthesia. Serial blood samples were collected from rats via a vascular access port located in the lateral saphenous vein. Mice and rats were euthanized in a CO2 chamber before collection of terminal blood samples or brain tissue. Blood samples were collected into polypropylene tubes containing K2EDTA anticoagulant and stored on ice until centrifuged for the preparation of plasma. Plasma was stored at −70°C. Whole brains were collected following decapitation, blotted dry, placed into polypropylene containers and then immediately frozen at approximately −70°C. CSF was collected from rats via cisterna magna puncture, placed in sterile polypropylene tubes, and stored at approximately −70°C.

[5] = Metabolism in primary hepatocytes; format: in vitro ADME, rat or dog; settings: over 12 h
[6] = system: L929 mouse fibroblast cells; assay: Mammalian cell cytotoxicity; format: cell-based
Protocol: as §2, with “later. […]” for “later.”

[7] = system: T. b. brucei, T. b. rhodesiense and T. b. gambiense strains; assay: Whole cell assays across representative strains (text summary of Table 1); format: cell-based; settings: Trypanosoma brucei; 72 h incubation; range over strains of Table 1; read-out: IC50 values across parasite strains
Protocol: as §3

Compound: CC1(C)OB(O)c2cc(NC(=O)c3ccc(F)cc3C(F)(F)F)ccc21 [SCYX-7158]
- IC50 [1]: 0.165 µg/mL (≈ 0.449 µM)
- IC50 [2]: 0.294 µg/mL (≈ 0.801 µM)
- IC50 ([3]; 72 h incubation, n = 9): 0.292 ± 0.019 µg/mL (≈ 0.795 µM)
- MIC ([3]; T. b. brucei S427, visual inspection): 0.6 µg/mL (≈ 1.63 µM)
- half-life ([4]; male, rodents and non-human primates, plasma, read-out: elimination half-life (converted)): 24 h
- brain AUC0–24 hr ([4]; rodents, 25 mg/kg oral dose): > 100000 ng·h/mL
- brain Cmax ([4]; rodents, 25 mg/kg oral dose): > 10000 ng/mL
- fraction of SCYX-7158 metabolized [5]: less than 5%
- IC50 ([6]; Mouse L929 fibroblast, n = 4): > 50 µg/mL
- inhibition of cell proliferation ([6]; drug concentrations up to 50 µg/mL): no significant inhibition
- IC50 [7]: 0.07 to 0.37 µg/mL (≈ 0.191 to 1.01 µM)
